Experimental findings from US20240059704A1, “Cereblon Ligands and Uses Thereof” (REGENTS OF THE UNIVERSITY OF MICHIGAN, priority 2022, published 2024) are described below.

Molecules are shown by their SMILES. Where a name gives a salt, the structure may show the parent alone. Where only a bound is given, the exact number is not on record here.

One test deals with CRBN/DDB1 (Homo sapiens (Human), UniProt Q96SW2). The following applies: HTRF, His tagged CRBN+DDB-DLS7+CXU4, Cy5-labeled Thalidomide probe; read-out: CRBN Binding IC50. Here is the method: The binding potency was determined using HTRF assay technology (Perkin Elmer). Compounds were serially diluted in DMSO and 0.2 μL volume was transferred to white 384-well plate.
Chain of CRBN/DDB1 (Q96SW2 whole entry): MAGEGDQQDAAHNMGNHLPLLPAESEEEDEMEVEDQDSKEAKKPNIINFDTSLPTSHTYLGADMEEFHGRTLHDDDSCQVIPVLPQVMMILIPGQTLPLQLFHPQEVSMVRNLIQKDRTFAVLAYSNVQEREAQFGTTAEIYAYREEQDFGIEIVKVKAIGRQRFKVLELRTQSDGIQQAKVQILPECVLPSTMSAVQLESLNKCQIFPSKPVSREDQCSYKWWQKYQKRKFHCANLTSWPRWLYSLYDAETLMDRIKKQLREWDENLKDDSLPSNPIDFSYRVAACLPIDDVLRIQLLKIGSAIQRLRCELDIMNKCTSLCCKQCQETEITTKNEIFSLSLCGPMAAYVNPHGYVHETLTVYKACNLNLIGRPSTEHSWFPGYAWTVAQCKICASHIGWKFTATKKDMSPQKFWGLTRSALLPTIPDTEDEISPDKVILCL
Chain of CRBN/DDB1 (Q16531 whole entry partner): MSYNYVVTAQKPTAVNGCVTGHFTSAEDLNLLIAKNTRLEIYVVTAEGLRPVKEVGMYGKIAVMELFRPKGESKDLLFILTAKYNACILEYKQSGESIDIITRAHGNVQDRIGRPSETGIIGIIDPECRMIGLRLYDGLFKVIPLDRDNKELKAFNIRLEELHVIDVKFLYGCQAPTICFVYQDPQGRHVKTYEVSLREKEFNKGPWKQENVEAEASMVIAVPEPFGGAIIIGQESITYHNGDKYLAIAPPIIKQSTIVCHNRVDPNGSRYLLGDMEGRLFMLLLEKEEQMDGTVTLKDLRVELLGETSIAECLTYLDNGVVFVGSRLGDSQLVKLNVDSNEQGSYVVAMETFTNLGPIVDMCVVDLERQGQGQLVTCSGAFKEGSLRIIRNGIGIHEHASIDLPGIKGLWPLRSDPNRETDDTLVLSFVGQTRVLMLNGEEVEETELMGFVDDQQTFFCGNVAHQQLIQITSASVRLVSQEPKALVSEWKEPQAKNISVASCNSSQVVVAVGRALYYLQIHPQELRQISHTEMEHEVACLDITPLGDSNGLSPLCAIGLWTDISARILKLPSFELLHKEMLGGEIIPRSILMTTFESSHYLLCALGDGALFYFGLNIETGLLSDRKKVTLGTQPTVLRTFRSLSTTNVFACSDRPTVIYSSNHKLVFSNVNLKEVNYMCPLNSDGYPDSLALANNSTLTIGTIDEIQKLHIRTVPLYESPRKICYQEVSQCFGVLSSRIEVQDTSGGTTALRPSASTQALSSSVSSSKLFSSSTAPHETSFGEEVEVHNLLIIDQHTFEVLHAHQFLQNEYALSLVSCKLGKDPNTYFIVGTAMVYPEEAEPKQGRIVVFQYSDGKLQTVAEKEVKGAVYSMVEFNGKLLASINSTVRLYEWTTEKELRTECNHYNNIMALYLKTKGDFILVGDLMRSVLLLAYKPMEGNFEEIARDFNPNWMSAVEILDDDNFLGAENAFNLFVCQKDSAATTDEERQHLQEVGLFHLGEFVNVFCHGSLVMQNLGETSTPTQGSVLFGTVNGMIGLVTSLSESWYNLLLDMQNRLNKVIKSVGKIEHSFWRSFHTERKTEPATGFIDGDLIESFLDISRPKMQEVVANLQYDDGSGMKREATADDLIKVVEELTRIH
The target of test [1] is wild-type human CRBN protein (Homo sapiens (Human), UniProt Q96SW2). Kind of test: Cereblon Binding Assay (Cisbio Cereblon Binding Kit, TR-FRET). The conditions noted are these: GST-tagged wild-type human CRBN, XL665-labelled Thalidomide. Here is the method:
The binding to cereblon (CRBN) was determined using the Cereblon Binding Kit (Cisbio, #64BDCRBNPEG) following the manufacturer's instruction. Briefly, serially diluted compounds were incubated with GST-tagged wild-type human CRBN protein, XL665-labelled Thalidomide and Europium Cryptate labelled GST antibody at room temperature for about 3 hours. Time Resolved Fluorescence Resonance Energy Transfer (TR-FRET) measurements were acquired on a CALRIOstar plate reader with MARS data analysis software (BMG Labtech), with the following settings: 665/10 nm and 620/10 nm emission, 60 […]. The TR-FRET ratio was taken as the 665/620 nm intensity ratio.

The target of a further test is ER (Homo sapiens (Human), UniProt P03372). As to the kind of experiment: In-cell western blot analysis (ICW), relative ER percentage in treated cells. The test is classed as cell-based. The following applies: ER degradation, 16 hours. Here is the method: In-cell western blot analysis. Cells are seeded in multi-well plates (e.g., at 40,000 or 10,000 cells/well). Diluted compounds at certain concentration are added (final 0.5% DMSO) and cells are incubated for certain period of time (e.g., 16 hours). Formaldehyde (e.g., PBS:FA=9:1) is added and followed by washing with PBS. The cells are blocked with Licor blocking buffer (Li-Cor). The relative ER percentage in treated cells were obtained by comparing the values of treated wells to those in untreated and DMSO-treated wells as 100%.
Chain of ER (P03372 whole entry): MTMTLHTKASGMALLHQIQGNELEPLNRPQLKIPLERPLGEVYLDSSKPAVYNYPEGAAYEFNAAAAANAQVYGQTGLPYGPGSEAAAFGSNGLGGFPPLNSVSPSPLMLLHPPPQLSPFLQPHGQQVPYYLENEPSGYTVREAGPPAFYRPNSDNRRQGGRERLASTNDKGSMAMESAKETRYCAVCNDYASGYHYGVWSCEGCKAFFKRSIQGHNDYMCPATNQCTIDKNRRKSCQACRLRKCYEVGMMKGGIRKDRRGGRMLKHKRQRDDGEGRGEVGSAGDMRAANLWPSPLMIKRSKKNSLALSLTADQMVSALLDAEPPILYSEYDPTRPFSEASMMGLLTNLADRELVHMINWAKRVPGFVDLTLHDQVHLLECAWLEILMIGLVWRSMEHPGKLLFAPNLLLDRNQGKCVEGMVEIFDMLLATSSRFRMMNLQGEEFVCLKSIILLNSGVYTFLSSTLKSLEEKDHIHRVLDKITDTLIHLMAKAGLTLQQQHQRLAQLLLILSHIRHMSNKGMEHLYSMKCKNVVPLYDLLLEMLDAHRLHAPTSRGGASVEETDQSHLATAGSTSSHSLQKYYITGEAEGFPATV
In-cell western blot analysis. a. seed cells in black-sided/clear bottom 96- or 384-well plates at 40,000 or 10,000 cells/well, overnight; b. add diluted compounds (final 0.5% DMSO), 16 hours. 16 h later, remove medium, add 100 μL or 25 μL of 3.7-4.0% formaldehyde (PBS:FA=9:1), RT 20 min, no shaking; c. wash with PBS, and permeabilized with 100 μL or 25 μL/well of 1×PBS+0.1% Triton X-100 10 minutes; d. block with 100 μL or 25 μL Licor blocking buffer (Li-Cor), RT 1h, moderate shaking; d. Add 100 μL or 25 μL of anti-ER (cs-8644, 1:500-1,000)+GAPDH (Millipore MAB374, 1:1000) in Block+0.05% Tween 20. RT 2h, gentle shaking. Negative control: cells plus secondary antibodies (no primary antibodies); e. wash×4 with PBS+0.05-0.1% Tween 20, gentel shaking; f. anti-rabbit-680 and anti-mouse-800 (both 1:1000 in LiCor block+0.05% Tween20, RT 1h, gentle shaking, no light. LI-COR: 0.2% to reduce background; g. wash×4 with PBS+0.05% Tween 20, gental shaking; h. add 100 μL or 25 μL of PBS to each well and read on CLX plate reader. The relative ER percentage in treated cells were obtained by comparing the values of treated wells to those in untreated and DMSO-treated wells as 100%.

For another test, the system named is T47D cell line. As to the kind of experiment: Cell growth inhibition in T47D cell line. In kind it is cell-based. The conditions noted are these: Homo sapiens, μM, class key in nM. Here is the method: Cell Growth Assay. The cells were seeded at certain concentration (e.g., at 1500/well) in multi-well plates overnight. Cells are subsequently treated with the compounds. A certain period of time (e.g., 4 days) after the compound treatment, 10% WST-8 reagent was added to the culture medium and incubate under certain condition (e.g., in a CO2 incubator at 37° C. for 2.5 hours). The absorbance is measured on each sample using a microplate reader at certain wavelength (e.g., 450 nm). The relative absorbance is calculated against the vehicle control from three individually repeats.

Chain of wild-type human CRBN protein (Q96SW2 whole entry): as the sequence (Q96SW2 whole entry) above

`O=C1CCC(N2Cc3c(ccc4c3OC3(C=C4)CCNCC3)C2=O)C(=O)N1` (stereo not drawn) [Compound A1, 3-(7′-oxo-7′,9′-dihydro-8′H-spiro[piperidine-4,2′-pyrano[2,3-e]isoindol]-8′-yl)piperidine-2,6-dione]: the IC50 at CRBN/DDB1 stood at 1100 nM. On the same count and under the same terms, for `O=C1CCC(N2Cc3c(ccc4c3OC3(CCNCC3)CC4)C2=O)C(=O)N1` (stereo not drawn) [Compound A2, 3-(7′-oxo-3′,4′,7′,9′-tetrahydro-8′H-spiro[piperidine-4,2′-pyrano[2,3-e]isoindol]-8′-yl)piperidine-2,6-dione] the value was 620 nM. On the same count and under the same terms, in the case of `O=C1CCC(N2Cc3c(ccc4c3OC3(C=C4)CNC3)C2=O)C(=O)N1` (stereo not drawn) [Compound A3, 3-(7′-oxo-7′,9′-dihydro-8′H-spiro[azetidine-3,2′-pyrano[2,3-e]isoindol]-8′-yl)piperidine-2,6-dione hydrochloride] it was 1300 nM; in that of `O=C1CCC(N2Cc3c(ccc4c3OC3(CC4)CNC3)C2=O)C(=O)N1` (stereo not drawn) [Compound A4, 3-(7′-oxo-3′,4′,7′,9′-tetrahydro-8′H-spiro[azetidine-3,2′-pyrano[2,3-e]isoindol]-8′-yl)piperidine-2,6-dione hydrochloride], 5200 nM.

The compound `O=C1CC[C@H](N2Cc3c(ccc4c3OCC3(CCNCC3)O4)C2=O)C(=O)N1` [Compound B1, (S)-3-(7′-oxo-7′,9′-dihydro-2′H,8′H-spiro[piperidine-4,3′-[1,4]dioxino[2,3-e]isoindol]-8′-yl)piperidine-2,6-dione] had an IC50 in test [1] of 330 nM. Still for that read-out and setting: for `O=C1CCC(N2Cc3c(ccc4c3OCC3(CNC3)O4)C2=O)C(=O)N1` (stereo not drawn) [Compound B2, 3-(7′-oxo-7′,9′-dihydro-2′H,8′H-spiro[azetidine-3,3′-[1,4]dioxino[2,3-e]isoindol]-8′-yl)piperidine-2,6-dione] the value was 259 nM; for `O=C1CC[C@H](N2Cc3cc4c(c(F)c3C2=O)OCC2(CCNCC2)O4)C(=O)N1` [Compound B3, (S)-3-(5′-fluoro-6′-oxo-6′,8′-dihydro-3′H,7′H-spiro[piperidine-4,2′-[1,4]dioxino[2,3-f]isoindol]-7′-yl)piperidine-2,6-dione], 1730 nM; for `O=C1CC[C@H](N2Cc3cc4c(cc3C2=O)OCC2(CNC2)O4)C(=O)N1` [Compound B4, (S)-3-(6′-oxo-6′,8′-dihydro-3′H,7′H-spiro[azetidine-3,2′-[1,4]dioxino[2,3-f]isoindol]-7′-yl)piperidine-2,6-dione], 4330 nM. The same measure, in the same setting: in the case of `O=C1CCC(N2C(=O)c3cc4c(cc3C2=O)OC2(CNC2)CO4)C(=O)N1` (stereo not drawn) [Compound B5, 7′-(2,6-dioxopiperidin-3-yl)-7′-hydro-3′H,6′H-spiro[azetidine-3,2′-[1,4]dioxino[2,3-f]isoindole]-6′,8′-dione] it was 4630 nM.

The compound `O=C1CCC(N2Cc3c(ccc4c3OCC3(CN(CC5CCN(c6ccc([C@@H]7c8ccc(O)cc8CC[C@@H]7c7ccccc7)cc6)CC5)C3)O4)C2=O)C(=O)N1` (stereo partly drawn) [THP-B367] displayed a DC50 on ER above 100 nM. The same compound showed an IC50 in the test on T47D cell line of 0.001 to 0.01 µM. For `O=C1CCC(N2Cc3c(ccc4c3OCC3(CN(CC5CC6(CCN(c7ccc([C@@H]8c9ccc(O)cc9CC[C@@H]8c8ccccc8)cc7)CC6)C5)C3)O4)C2=O)C(=O)N1` (stereo partly drawn) [THP-B368] the same measures were above 100 nM and 0.001 to 0.01 µM. In the same order, the values of `O=C1CC[C@H](N2Cc3c(ccc4c3OCC3(CCN(CC5CCN(c6ccc([C@@H]7c8ccc(O)cc8CC[C@@H]7c7ccccc7)cc6)CC5)CC3)O4)C2=O)C(=O)N1` [THP-B369] are 10 to 100 nM and below 0.001 µM. In the same order, the values of `O=C1CC[C@H](N2Cc3c(ccc4c3OCC3(CCN(CC5CC6(CCN(c7ccc([C@@H]8c9ccc(O)cc9CC[C@@H]8c8ccccc8)cc7)CC6)C5)CC3)O4)C2=O)C(=O)N1` [THP-B371] are below 10 nM and below 0.001 µM. As to `O=C1CC[C@H](N2Cc3c(ccc4c3OCC3(CCN(CC5CCC6(CCN(c7ccc([C@@H]8c9ccc(O)cc9CC[C@@H]8c8ccccc8)cc7)CC6)O5)CC3)O4)C2=O)C(=O)N1` (stereo partly drawn) [THP-B372], on ER, the DC50 lay in the range of 10 to 100 nM. The compound further came in with an IC50 with T47D cell line of 0.001 to 0.01 µM.

At ER, `O=C1CC[C@H](N2Cc3c(ccc4c3OCC3(CCN(CC5COC6(CCN(c7ccc([C@@H]8c9ccc(O)cc9CC[C@@H]8c8ccccc8)cc7)CC6)C5)CC3)O4)C2=O)C(=O)N1` (stereo partly drawn) [THP-B373] came in with a DC50 below 10 nM. Besides, the IC50 with T47D cell line was below 0.001 µM. In the same order, the values of `O=C1CC[C@H](N2Cc3c(ccc4c3OCC3(CCN(CC5COC6(CCN(c7ccc([C@@H]8c9ccc(O)cc9CC[C@@H]8c8ccccc8)cc7)CC6)OC5)CC3)O4)C2=O)C(=O)N1` [THP-B374] are below 10 nM and below 0.001 µM. In turn, `O=C1CCC(N2Cc3c(ccc4c3OCC3(CN(CC5CCC6(CC5)CN(c5ccc([C@@H]7c8ccc(O)cc8CC[C@@H]7c7ccccc7)cc5)C6)C3)O4)C2=O)C(=O)N1` (stereo partly drawn) [THP-B376] had a DC50 on ER of 10 to 100 nM. Moreover, the IC50 in the test on T47D cell line is below 0.001 µM. For `O=C1CCC(N2Cc3c(ccc4c3OCC3(CN(CC5COC6(CCN(c7ccc([C@@H]8c9ccc(O)cc9CC[C@@H]8c8ccccc8)cc7)CC6)OC5)C3)O4)C2=O)C(=O)N1` (stereo partly drawn) [THP-B377] the same measures were 10 to 100 nM and below 0.001 µM. `O=C1CC[C@H](N2Cc3cc4c(c(F)c3C2=O)OCC2(CCN(CC3CCN(c5ccc([C@@H]6c7ccc(O)cc7CC[C@@H]6c6ccccc6)cc5)CC3)CC2)O4)C(=O)N1` [THP-B383, (S)-3-(5′-fluoro-1-((1-(4-((1R,2S)-6-hydroxy-2-phenyl-1,2,3,4-tetrahydronaphthalen-1-yl)phenyl)piperidin-4-yl)methyl)-6′-oxo-6′,8′-dihydro-3′H,7′H-spiro[piperidine-4,2′-[1,4]dioxino[2,3-f]isoindol]-7′-yl)piperidine-2,6-dione] registered a DC50 at ER above 100 nM. The compound further returned an IC50 with T47D cell line above 0.01 µM. In the same order, the values of `O=C1CC[C@H](N2Cc3cc4c(c(F)c3C2=O)OCC2(CCN(CC3CC5(CCN(c6ccc([C@@H]7c8ccc(O)cc8CC[C@@H]7c7ccccc7)cc6)CC5)C3)CC2)O4)C(=O)N1` [THP-B384] are above 100 nM and 0.001 to 0.01 µM. In the same order, the values of `O=C1CCC(N2C(=O)c3cc4c(cc3C2=O)OC2(CO4)CN(CC3CC4(CCN(c5ccc([C@@H]6c7ccc(O)cc7CC[C@@H]6c6ccccc6)cc5)CC4)C3)C2)C(=O)N1` (stereo partly drawn) [THP-B385] are above 100 nM and 0.001 to 0.01 µM. For `O=C1CCC(N2Cc3c(ccc4c3OCC3(CN(CC5CCC6(CCN(c7ccc([C@@H]8c9ccc(O)cc9CC[C@@H]8c8ccccc8)cc7)CC6)OC5)C3)O4)C2=O)C(=O)N1` (stereo partly drawn) [THP-B386] the same measures were above 100 nM and 0.001 to 0.01 µM. Turning to `O=C1CC[C@H](N2Cc3cc4c(cc3C2=O)OCC2(CN(CC3CC5(CCN(c6ccc([C@@H]7c8ccc(O)cc8CC[C@@H]7c7ccccc7)cc6)CC5)C3)C2)O4)C(=O)N1` [THP-B394, (S)-3-(1-((7-(4-((1R,2S)-6-hydroxy-2-phenyl-1,2,3,4-tetrahydronaphthalen-1-yl)phenyl)-7-azaspiro[3.5]nonan-2-yl)methyl)-6′-oxo-6′,8′-dihydro-3′H,7′H-spiro[azetidine-3,2′-[1,4]dioxino[2,3-f]isoindol]-7′-yl)piperidine-2,6-dione], the IC50 with T47D cell line was in the range of 0.001 to 0.01 µM.
